viability, T/C and IC50 data for 9 molecules are collected here from PubChem BioAssay AID1918948 (Molecular Pharmacology Branch, DTP, NCI, 2023).

Values joined by “and” are separate entries in the source; they are usually repeats but may differ in a detail not shown here. Equal entries are not always repeated. Bounds are passed on as bounds.

The test system of the assay is K-562 leukemia growth, % test/control. As to the kind of experiment: Anticancer human tumor K-562 cell line growth inhibition.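 For all read-outs here: spheroids exposed to compounds for 7 days.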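 For viability, T/C: 100% = DMSO vehicle wells and lower values mean fewer viable cells.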 To be noted: spheroids with HUVEC and MSC; for viability, T/C: stronger effect = lower value; for IC50: curve of compound. An excerpt:
Multicellular complex tumor spheroid response to LSD1 Inhibitor Iadademstat in combination with a variety of drugs and investigational agents in selected tumor cell lines
The current study was undertaken to assess response to LSD1 inhibitors in combination with standard-of-care drugs and investigational agents in solid tumor complex spheroid models as well as in the K-562 leukemia. Complex spheroids include a stromal component modeled by human endothelial cells (HUVEC) and fibroblasts modeled by human mesenchymal stem cells (MSCs). The concentration ranges selected for each drug and investigational agent were based upon clinically achievable concentrations if the clinical Cmax of the agent was known.
Compounds. The drugs and investigational agents used in this study are listed on Table 1. All of the agents used, including staurosporine (NSC755774) and gemcitabine (NSC613327), were obtained from the Developmental Therapeutics Program, NCI. FDA-approved anticancer drugs are available from the NCI at http://dtp.nci.nih.gov/branches/dscb/oncology_drugset_explanation.html. Drugs and investigational agents were >95% pure by proton nuclear magnetic resonance (NMR) and liquid chromatography/mass spectrometry (LC/MS). Stock solutions were prepared at 400x in DMSO, stored at -70 degrees C, and diluted in fresh medium prior to their use. The final concentration of DMSO in cell culture wells never exceeded 0.25% (v/v). The FDA-approved anticancer drug set is available from the Developmental Therapeutics Program at https://dtp.cancer.gov/organization/dscb/obtaining/available_plates.htm. All drugs and investigational agents were tested over a range starting from a high concentration at or near the clinical Cmax and decreasing in half-log increments. If the clinical Cmax for an agent had not been determined, the highest concentration tested was 10 microM.
Cell Lines. The patient-derived cancer cell (PDC) lines: 292921-168-R-J2-PDC, K24384-001-R-PDC, and 521955-158-R2-J5-PDC pancreatic carcinomas, 556581-035-R-J1 ovarian carcinoma, 324938-238-R-J1-PDC, 855422-203-R-J1-PDC and 883617-216-R-J1-PDC urothelial bladder carcinomas, 743489-274-T-PDC renal cell carcinoma, 138582-R-J1 Merkel cell tumor, K60290-347-R-J1 and K57222-313-R-J1-PDC glioblastomas, 653999-131-R-J2-PDC, LG0703-F948-PDC, and 349418-098-R-PDC non-small cell lung carcinomas, 885512-296-R-J2-PDC, 171881-019-R-J1-PDC breast carcinomas and 186277-243-T-J2-PDC and 233499-124-R-J2-PDC colon carcinomas were obtained from the NCI Patient-Derived Models Repository (PDMR, https://pdmr.cancer.gov). The established cell lines NCI/ADR-RES (RRID:CVCL_14520 and OVCAR-5 (RRID:CVCL_1628) ovarian carcinomas, 786-O (RRID:CVCL_1051) and A498 (RRID:CVCL_A498) renal cell carcinoma, NCI-H211 (ATCC, cat. CRL-5824; RRID:CVCL_1529), NCI-H196 (ATCC, cat. CRL-5823, RRID:CVCL_1509), SW 1271 (ATCC, cat. CRL-2177, RRID:CVCL_1716) and NCI-H1876 (ATCC, cat. CRL-5902, RRID:CVCL_1503) small cell lung carcinomas, MDA-MB-231 (RRID:CVCL_0062) and MDA-MB-468 (RRID:CVCL_0419)breast carcinomas (10-12). Pooled donor human umbilical vein endothelial cells (HUVEC, Lonza, cat. CC-2519) and human mesenchymal stem cells (hMSC, Lonza, cat. PT-2501) were purchased from Lonza (Walkersville, MD).
Cell Culture. All cells were maintained in an incubator at 37 degrees C and 5% CO2 with 95% humidity. The PDC lines were cultured according to standard operating procedures established by the NCI PDMR (https://pdmr.cancer.gov). Briefly all PDCs were thawed and cultured in Matrigel-coated flasks prepared with a working solution of 1X Ham's F-12 nutrient mix, without supplementation (Invitrogen, Waltham, MA, cat. 11765054), 100 U/mL penicillin-streptomycin (Invitrogen, cat. 15140122), and 2.5% Matrigel (Corning Inc., Corning, NY, cat. 354248) for the first three passages. […]

As a reminder, the viability, T/C is the result in the treated group divided by that in the control group, in per cent. What is called IC50 is the concentration that gives 50% inhibition.

Consider `CC(C)CC(NC(=O)C(Cc1ccccc1)NC(=O)c1cnccn1)B(O)O` (stereo not given), for which the 50% inhibitory concentration (IC50) was 2 nM and 0.584 nM. Moreover, the viability, T/C (compound 0.000316 µM) was 98.7% and 102%. Moreover, the viability, T/C (compound 0.00316 µM) was 18.8% and 1.3%. In addition, the viability, T/C (compound 0.01 µM) is 1.39% and 0.58%. The viability, T/C (compound 0.0316 µM) is 1.89% and 0.51%. Besides, for the setting “compound 0.1 µM”, the viability, T/C is 3.68% and 0.49%.
`CC(C)CC(NC(=O)CNC(=O)c1cc(Cl)ccc1Cl)B1OC(=O)CC(CC(=O)O)(C(=O)O)O1` (stereo not given): the IC50 is 17.4 nM and 14.8 nM. The viability, T/C (compound 0.000316 µM) is 103% and 97%. Moreover, where the note is “compound 0.001 µM”, the viability, T/C was 97.5% and 95.5%. Also, where the note is “compound 0.00316 µM”, the viability, T/C was 95.6% and 97.4%. For the same molecule, the viability, T/C (compound 0.01 µM) is 74.2% and 68.6%. Besides, the viability, T/C (compound 0.0316 µM) was 24.2% and 13.3%. For the setting “compound 0.1 µM”, the viability, T/C was 6.61% and 2.45%.
On to `CC1(C)CCC(CN2CCN(c3ccc(C(=O)NS(=O)(=O)c4ccc(NCC5CCOCC5)c([N+](=O)[O-])c4)c(Oc4cnc5[nH]ccc5c4)c3)CC2)=C(c2ccc(Cl)cc2)C1`, for which the half-inhibitory concentration (IC50) was 7520 nM and 4730 nM. Where the note is “compound 0.0316 µM”, the viability, T/C is 102% and 101%. Moreover, the viability, T/C (compound 0.1 µM) was 103% and 107%. Besides, under “compound 0.316 µM”, the viability, T/C was 100% and 108%. Further, the viability, T/C (compound 1 µM) is 109% and 117%. Also, the viability, T/C (compound 3.16 µM) was 117% and 75.7%.
In the case of `CC1COCCN1c1cc(-c2ccnn2C)c2ccnc(-c3ccn[nH]3)c2n1` (stereo not given), the half-inhibitory concentration (IC50) was 13.1 nM and < 3.16 nM. In addition, the viability, T/C (compound 0.00316 µM) was 88.3% and 28.6%. The viability, T/C (compound 0.01 µM) is 59.4% and 15.3%. The viability, T/C (compound 0.0316 µM) is 19.1% and 3.08%. For the setting “compound 0.1 µM”, the viability, T/C was 5.33% and 2.16%. The viability, T/C (compound 0.316 µM) is 3.07% and 2.39%. For the same molecule, the viability, T/C (compound 1 µM) is 2.84% and 2.02%.
Regarding `CCN(c1cc(-c2ccc(CN3CCOCC3)cc2)cc(C(=O)NCc2c(C)cc(C)[nH]c2=O)c1C)C1CCOCC1`, the IC50 was > 3000 nM and 2140 nM. Moreover, for the setting “compound 0.00949 µM”, the viability, T/C was 110% and 112%. The viability, T/C (compound 0.03 µM) is 107% and 112%. Moreover, under “compound 0.0949 µM”, the viability, T/C is 105% and 114%. The viability, T/C (compound 0.3 µM) was 105%. In addition, the viability, T/C (compound 0.949 µM) is 107% and 76.7%. Moreover, the viability, T/C (compound 3 µM) is 104% and 38.9%.
As to `CC[C@@]1(O)C(=O)OCc2c1cc1n(c2=O)Cc2cc3c(CN(C)C)c(O)ccc3nc2-1`, the concentration for half-maximal inhibition (IC50) is 2.23 nM and 7.98 nM. Further, the viability, T/C (compound 0.000316 µM) is 98.4% and 100%. The viability, T/C (compound 0.001 µM) is 71.1% and 99.8%. In addition, the viability, T/C (compound 0.00316 µM) is 34.6% and 58.8%. Moreover, the viability, T/C (compound 0.01 µM) was 32.6% and 50.7%. In addition, the viability, T/C (compound 0.0316 µM) is 20.8% and 24.8%. For the same molecule, under “compound 0.1 µM”, the viability, T/C was 11.2%.
With `CCc1c2c(nc3ccc(O)cc13)-c1cc3c(c(=O)n1C2)COC(=O)[C@]3(O)CC`, the 50% inhibitory concentration (IC50) was less than 0.949 nM. Besides, the viability, T/C (compound 0.000949 µM) is 15% and 13.4%. Also, the viability, T/C (compound 0.003 µM) is 10.5% and 9.22%. The viability, T/C (compound 0.00949 µM) is 5.78% and 4.21%. The viability, T/C (compound 0.03 µM) was 2.47% and 1.25%. In addition, the viability, T/C (compound 0.0949 µM) is 0.78% and 0.75%. Further, the viability, T/C (compound 0.3 µM) is 0.65% and 0.82%.
In the case of `COc1cc(C2c3cc4c(cc3C(OC3OC5COC(C)OC5C(O)C3O)C3COC(=O)C23)OCO4)cc(OC)c1O` (stereo not given), the IC50 was 29 nM and 52.1 nM. Further, the viability, T/C (compound 0.00949 µM) was 89.7% and 84.4%. The viability, T/C (compound 0.03 µM) was 48.8% and 36.5%. Also, the viability, T/C (compound 0.0949 µM) is 23.6% and 39.6%. For the same molecule, the viability, T/C (compound 0.3 µM) is 41% and 42.6%. The viability, T/C (compound 0.949 µM) was 34.9% and 9.87%. For the same molecule, the viability, T/C (compound 3 µM) is 8.88% and 1.67%.
In the case of `COc1cc(Nc2ncc3c(n2)-c2ccc(Cl)cc2C(c2c(F)cccc2OC)=NC3)ccc1C(=O)O`, the IC50 is 8 nM and < 3.16 nM. In addition, the viability, T/C (compound 0.00316 µM) was 83.3% and 43.7%. Moreover, for the setting “compound 0.01 µM”, the viability, T/C was 41.7% and 44.3%. For the same molecule, under “compound 0.0316 µM”, the viability, T/C was 40% and 40.6%. The viability, T/C (compound 0.1 µM) was 39.9% and 40.8%. Besides, under “compound 0.316 µM”, the viability, T/C is 37.6% and 11.2%.
